In ChEMBL document CHEMBL6114998, “Design, Synthesis, and Pharmacological Evaluation of Quinazoline and Quinoline Derivatives as Potent ENPP1 Inhibitors for Cancer Immunotherapy” (J Med Chem, 2025):
pIC50: −log10 of the molar value. Calls of active or inactive are those of the source. No cut-off for these calls is given here.

Experiments:
[1] = AUC(0 to t) in Sprague-Dawley rat at 10 mg/kg, iv measured upto 24 hrs by LC-MS/MS analysis; assay type: ADME, organism-based; conditions: in vivo
CT26 [2] = test: Antitumor activity against mouse CT26 cells allografted in female BALB/c mouse assessed as increase in CD8+T cells in tumor tissue at 200 mg/kg QD, ip in presence of anti-PD-L1 antibody measured every 2 days for 12 days by immunofluorescence analysis; assay type: functional, organism-based; conditions: time 12.0 day
THP1-Dual KO-STING [3] = test: Cytotoxicity against human THP1-Dual KO-STING cells assessed as effect on cell viability at 1 uM followed by addition of conditioned medium containing 36 hrs compound pretreated human MDA-MB-231 cells measured after 24 hrs by celltiter-glo assay; assay type: functional, cell-based; conditions: time 60.0 hrs
CT26 [4] = test: Antitumor activity against mouse CT26 cells allografted in female BALB/c mouse assessed as increase in M1-type macrophages in tumor tissue at 200 mg/kg QD, ip in presence of anti-PD-L1 antibody measured every 2 days for 12 days by immunohistochemical analysis; assay type: functional, organism-based; conditions: time 12.0 day
THP-1 = test: Activation of STING signalling pathway in human THP-1 cells assessed as increase in TBK1 phosphorylation at 300 nM preincubated with compound for 2 hrs followed by cGAMP addition and measured after 3 hrs by Western blot analysis; assay type: cell-based; conditions: filed as activator, time 5.0 hrs
CT26 [5] = test: Antitumor activity against mouse CT26 cells allografted in female BALB/c mouse assessed as increase in infiltration of CD8+T cells in tumor tissue at 200 mg/kg QD, ip in presence of anti-PD-L1 antibody measured every 2 days for 12 days by immunohistochemical analysis; assay type: functional, organism-based; conditions: time 12.0 day
[6] = Apparent permeability across basal to apical side in human Caco-2 cells at 10 uM by LC-MS/MS analysis; assay type: ADME, cell-based
THP1-Dual = test: Cytotoxicity against human THP1-Dual cells assessed as effect on cell viability at 3 to 1000 nM followed by addition of conditioned medium containing 36 hrs compound pretreated human MDA-MB-231 cells measured after 24 hrs by celltiter-glo assay; assay type: functional, cell-based; conditions: dose 3-1000 nM, time 60.0 hrs
THP1-Dual KO-STING [7] = test: Activation of STING-mediated immune response in human THP1-Dual KO-STING cells assessed as cGAMP-induced ISRE activation at 1 uM preincubated with conditioned medium containing 36 hrs compound treated with human MDA-MB-231 cells and measured after 24 hrs by quanti-luc luciferase assay; assay type: cell-based; conditions: filed as activator, time 60.0 hrs
CT26 [8] = test: Antitumor activity against mouse CT26 cells allografted in female BALB/c mouse assessed as increase in M1-type macrophages in tumor tissue at 200 mg/kg QD, ip measured every 2 days for 12 days by immunohistochemical analysis; assay type: functional, organism-based; conditions: time 12.0 day
[9] = Inhibition of TK (unknown origin) at 1 uM by KINOMEscan assay; conditions: Homo sapiens
Homo sapiens = organism: Homo sapiens; test: Inhibition of STE (unknown origin) at 1 uM by KINOMEscan assay
[10] = target: Voltage-gated inwardly rectifying potassium channel KCNH2 (Homo sapiens, UniProt Q12809); test: Inhibition of hERG expressed in CHO cells by QPatch automated patch-clamp assay; assay type: toxicity, cell-based
Voltage-gated inwardly rectifying potassium channel KCNH2, sequence (Q12809 whole entry): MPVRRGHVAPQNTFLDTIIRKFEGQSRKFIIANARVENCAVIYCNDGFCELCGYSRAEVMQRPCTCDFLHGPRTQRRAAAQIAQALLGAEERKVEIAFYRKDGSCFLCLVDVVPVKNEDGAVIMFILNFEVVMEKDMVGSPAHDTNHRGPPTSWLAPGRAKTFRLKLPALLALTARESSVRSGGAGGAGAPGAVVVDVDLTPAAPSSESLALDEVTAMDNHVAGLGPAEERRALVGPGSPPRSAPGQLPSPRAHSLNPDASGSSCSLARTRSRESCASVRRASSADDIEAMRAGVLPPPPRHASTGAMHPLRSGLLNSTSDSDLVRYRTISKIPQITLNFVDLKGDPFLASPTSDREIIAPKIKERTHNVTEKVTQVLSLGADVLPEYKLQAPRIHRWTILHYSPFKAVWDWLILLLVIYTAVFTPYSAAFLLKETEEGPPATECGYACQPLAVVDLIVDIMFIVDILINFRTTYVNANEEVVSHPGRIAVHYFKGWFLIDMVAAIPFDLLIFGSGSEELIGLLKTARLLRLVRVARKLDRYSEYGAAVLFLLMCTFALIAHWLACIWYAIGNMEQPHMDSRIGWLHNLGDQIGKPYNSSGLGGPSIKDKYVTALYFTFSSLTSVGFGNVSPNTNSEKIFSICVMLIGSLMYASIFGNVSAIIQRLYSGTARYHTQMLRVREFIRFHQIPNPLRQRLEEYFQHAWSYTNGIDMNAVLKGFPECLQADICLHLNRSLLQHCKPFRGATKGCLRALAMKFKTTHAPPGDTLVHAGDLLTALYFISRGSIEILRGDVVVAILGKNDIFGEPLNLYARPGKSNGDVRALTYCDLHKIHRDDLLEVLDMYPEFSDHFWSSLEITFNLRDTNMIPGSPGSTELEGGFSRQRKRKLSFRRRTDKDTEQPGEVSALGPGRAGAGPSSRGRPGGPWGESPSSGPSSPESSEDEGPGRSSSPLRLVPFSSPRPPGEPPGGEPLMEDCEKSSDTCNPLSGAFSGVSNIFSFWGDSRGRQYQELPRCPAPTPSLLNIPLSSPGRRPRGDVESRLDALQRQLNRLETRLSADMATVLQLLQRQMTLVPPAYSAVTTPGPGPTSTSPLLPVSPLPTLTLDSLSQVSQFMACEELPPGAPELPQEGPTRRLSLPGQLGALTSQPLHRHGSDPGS

CT26 [11] = test: Antitumor activity against mouse CT26 cells allografted in female BALB/c mouse assessed as increase in M1-type macrophages in tumor tissue at 200 mg/kg QD, ip in presence of anti-PD-L1 antibody measured every 2 days for 12 days by immunofluorescence analysis; assay type: functional, organism-based; conditions: time 12.0 day
CT26 [12] = test: Antitumor activity against mouse CT26 cells allografted in female BALB/c mouse assessed as tumor growth inhibition at 200 mg/kg QD, ip measured every 2 days for 12 days relative to control; assay type: functional; conditions: CT26, 288 h, time 12 day, read-out: TGI
[13] = MRT (0 to t) in Sprague-Dawley rat at 10 mg/kg, iv measured upto 24 hrs by LC-MS/MS analysis; assay type: ADME, organism-based; conditions: in vivo
[14] = target: T1, Ectonucleotide pyrophosphatase/phosphodiesterase family member 1 (Homo sapiens, UniProt P22413); test: Inhibition of ENPP1 in human MDA-MB-231 cells using p-NPh-5TMP as substrate at pH 9.5 measured after 60 mins; assay type: cell-based
T1 sequence (P22413 whole entry): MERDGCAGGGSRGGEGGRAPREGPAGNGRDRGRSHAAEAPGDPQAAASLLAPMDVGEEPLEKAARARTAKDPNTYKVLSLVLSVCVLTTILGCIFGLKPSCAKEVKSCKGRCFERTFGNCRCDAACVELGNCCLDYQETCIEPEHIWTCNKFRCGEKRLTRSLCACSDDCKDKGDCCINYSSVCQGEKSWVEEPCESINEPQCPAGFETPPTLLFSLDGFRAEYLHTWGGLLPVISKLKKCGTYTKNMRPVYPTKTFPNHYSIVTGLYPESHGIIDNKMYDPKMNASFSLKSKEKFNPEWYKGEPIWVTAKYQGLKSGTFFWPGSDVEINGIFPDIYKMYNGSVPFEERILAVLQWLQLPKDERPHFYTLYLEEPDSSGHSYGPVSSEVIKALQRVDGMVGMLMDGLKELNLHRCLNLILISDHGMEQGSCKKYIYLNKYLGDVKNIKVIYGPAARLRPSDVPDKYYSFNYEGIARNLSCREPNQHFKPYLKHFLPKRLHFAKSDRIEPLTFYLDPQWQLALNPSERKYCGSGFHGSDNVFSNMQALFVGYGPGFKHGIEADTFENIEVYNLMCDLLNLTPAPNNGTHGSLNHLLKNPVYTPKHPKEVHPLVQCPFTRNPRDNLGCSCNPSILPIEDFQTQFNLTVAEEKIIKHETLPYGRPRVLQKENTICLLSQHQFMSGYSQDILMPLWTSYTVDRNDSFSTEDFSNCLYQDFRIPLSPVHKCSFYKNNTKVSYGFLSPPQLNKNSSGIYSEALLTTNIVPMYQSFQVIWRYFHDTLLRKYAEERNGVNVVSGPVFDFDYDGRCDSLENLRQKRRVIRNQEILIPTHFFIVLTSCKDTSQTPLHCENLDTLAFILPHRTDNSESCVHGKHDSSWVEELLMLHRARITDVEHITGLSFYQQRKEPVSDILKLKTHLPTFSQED

COc1cccc2c(N3CCC(O)(CNS(N)(=O)=O)CC3)ncnc12
AUC(0-t) at 24 h [1]: 2030 ng·h/mL | Activity (CT26 [2]): Active | Activity (THP1-Dual KO-STING [3]): Active | Activity (CT26 [4]): Active | Activity (THP-1): Active | Activity (CT26 [5]): Active | Papp B→A at 10 µM [6]: 2.13 ×10⁻⁶ cm/s | Activity (THP1-Dual): Active | Activity (THP1-Dual KO-STING [7]): Active | Activity (CT26 [8]): Active | inhibition [9]: inactive | inhibition (Homo sapiens): inactive | pIC50 [10]: < 4.40 | Activity (CT26 [11]): Active | inhibition in vivo at 200 mg/kg (CT26 [12]): 39.9% | MRT last at 24 h [13]: 39.7 min | pIC50 [14]: 8.82
